Measurements reported in patent US20070208063A1, “Imidazole-based compounds, compositions comprising them and methods of their use” (priority 2006, published 2007).

Key:
[1] = test system: lymphocyte egress from the thymus; assay: Effects on lymphocytes in mice: FACS of thymus T cells; assay type: in vivo, mice (F1 hybrids of 129/B6 strain); details: administered in drinking water; FIGS. 1-3
Procedure: Compounds were administered by oral gavage or in drinking water. For oral dosing experiments, compounds were resuspended from crystals at 10 mg/ml in vehicle (e.g., water). Mice (F1 hybrids of 129/B6 strain) were gavaged with a single 100 mg/kg dose of compound (equivalent to 100 mpk of the free base for each compound) or a vehicle-only control, and returned to their cages. Mice were anesthetized using isofluorane eighteen hours after dosing and tissues were collected for analysis as described below. For drinking water studies, compounds were dissolved at 50 mg/L in acidified water (pH=2.8) containing 10 g/L glucose. The mice were allowed free access to compound-containing water (or glucose solution as a control) for 72 hours. At the end of 72 hours, tissues were collected for analysis. Flow cytometry (FACS) measurements were obtained as follows. Twenty five μl whole blood was lysed by hyoptonic shock, washed once in 2 ml FACS wash buffer (FWB: PBS/0.1% BSA/0.1% NaN3/2 mM EDTA) and stained for 30 minutes at 4° C. in the dark with a combination of fluorochrome-conjugated antibodies diluted in 50 μl FWB. After staining, the cells were washed once with 2 ml FWB and resuspended in 300 μl FWB for acquisition. […] Samples were analyzed using a FACSCalibur flow cytometer and CellQuest Pro software (Becton Dickinson Immunocytometry Systems, San Jose, Calif.). […]

circulating lymphocytes = assay: Effects on lymphocytes in mice: whole blood counts (CBC); assay type: in vivo, mice (F1 hybrids of 129/B6 strain)
Procedure: Unless otherwise indicated, the term “circulating lymphocyte reduction factor” or “CLRF” means the decrease in the number of circulating lymphocytes in mice caused by oral administration of a single dose of a compound at 100 mg/kg, as determined by the method described in the Examples, below. Compounds were administered by oral gavage or in drinking water. For oral dosing experiments, compounds were resuspended from crystals at 10 mg/ml in vehicle (e.g., water). Mice (F1 hybrids of 129/B6 strain) were gavaged with a single 100 mg/kg dose of compound (equivalent to 100 mpk of the free base for each compound) or a vehicle-only control, and returned to their cages. Mice were anesthetized using isofluorane eighteen hours after dosing and tissues were collected for analysis as described below. For drinking water studies, compounds were dissolved at 50 mg/L in acidified water (pH=2.8) containing 10 g/L glucose. The mice were allowed free access to compound-containing water (or glucose solution as a control) for 72 hours. At the end of 72 hours, tissues were collected for analysis. CBC measurements were obtained as follows. Mice were anesthetized with isofluorane and blood was collected from the retroorbital plexus into EDTA blood collection tubes (Capiject-MQK, Terumo Medical Corp., Elkton, Md.). […]

S1P lyase = target: T1, S1P lyase (Mus musculus, UniProt Q8R0X7); details: when administered to mice; Schwab et al. 2005; cited from earlier work
T1 construct: host or cells: mice (in vivo)
T1 sequence (Q8R0X7 1-568): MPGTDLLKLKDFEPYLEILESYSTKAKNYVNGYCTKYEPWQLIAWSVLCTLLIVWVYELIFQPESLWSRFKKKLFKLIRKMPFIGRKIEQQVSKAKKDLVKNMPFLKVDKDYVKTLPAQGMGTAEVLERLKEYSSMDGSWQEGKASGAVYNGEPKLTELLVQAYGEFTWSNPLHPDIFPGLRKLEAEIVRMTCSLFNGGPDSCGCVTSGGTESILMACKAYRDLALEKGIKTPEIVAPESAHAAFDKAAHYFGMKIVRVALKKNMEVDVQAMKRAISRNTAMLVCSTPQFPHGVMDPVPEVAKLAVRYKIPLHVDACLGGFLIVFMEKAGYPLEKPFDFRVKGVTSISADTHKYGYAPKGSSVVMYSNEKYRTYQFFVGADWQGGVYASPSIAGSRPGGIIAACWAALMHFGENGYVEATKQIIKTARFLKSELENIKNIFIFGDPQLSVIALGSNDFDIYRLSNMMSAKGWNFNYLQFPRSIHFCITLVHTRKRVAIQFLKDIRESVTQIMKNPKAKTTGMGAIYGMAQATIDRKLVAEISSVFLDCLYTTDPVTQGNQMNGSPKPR

[2] = test system: lymphocytes / mature T cells in the thymus; details: administration to rats and mice; cited from earlier work
immunological effects = details: studies in humans; Thuvander 1994, Houben 1992; cited from earlier work

| SMILES | effect on lymphocyte egress from the thymus [1] | effect on circulating lymphocytes (circulating lymphocytes) | S1P lyase activity (S1P lyase) | lymphopenia [2] | mature T cells in the thymus [2] | immunological effects (immunological effects) |
| --- | --- | --- | --- | --- | --- | --- |
| CC(=O)c1nc(C(O)C(O)C(O)CO)c[nH]1 (stereo not shown) [THI, 2-acetyl-4-tetrahydroxybutylimidazole] | diminished lymphocyte egress from the thymus | capable of reducing circulating lymphocytes in mice | inhibits S1P lyase activity | induces lymphopenia | causes the accumulation of mature T cells in the thymus | no immunological effects |
| CC(=O)c1nc(C)c([C@@H](O)[C@H](O)[C@H](O)CO)s1 [Compound 2, 1-(4-methyl-5-((1S,2R,3R)-1,2,3,4-tetrahydroxybutyl)thiazol-2-yl)ethanone] |  | little or no effect on circulating lymphocytes |  |  |  |  |
